Results taken from publication PMC2901518 (British Journal of Pharmacology, 2010).
Changes are numbered by the printed parent chain.

Key:
Y1 receptor ΔY346 = type: binding, rat
[1] = target: T1, Y1 receptor STA (S352A, T353A) (Rattus norvegicus, UniProt P21555, S352A/T353A); experiment: [125I]PYY competition binding, Y1 STA/βarr2 membranes
T1 sequence (P21555 2-382 S352A/T353A): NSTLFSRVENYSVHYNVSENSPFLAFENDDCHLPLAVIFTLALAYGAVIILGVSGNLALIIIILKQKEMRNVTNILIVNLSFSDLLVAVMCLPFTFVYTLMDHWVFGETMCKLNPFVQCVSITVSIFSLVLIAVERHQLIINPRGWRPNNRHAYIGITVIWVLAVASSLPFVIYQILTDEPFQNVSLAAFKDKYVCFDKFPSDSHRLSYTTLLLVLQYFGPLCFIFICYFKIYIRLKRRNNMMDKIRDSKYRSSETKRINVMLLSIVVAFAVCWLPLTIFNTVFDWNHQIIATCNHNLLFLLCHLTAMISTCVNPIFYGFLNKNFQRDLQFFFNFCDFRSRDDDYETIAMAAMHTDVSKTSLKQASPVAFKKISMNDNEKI

Y1 receptor T356A = target: T2, Y1 receptor T356A (Rattus norvegicus, UniProt P21555, T356A); experiment: [125I]PYY competition binding, Y1 T356A/βarr2 membranes
T2 sequence (P21555 2-382 T356A): T1 sequence (P21555 2-382 S352A/T353A) with A351S, A352T, T355A

Y1 receptor STA, TSA = target: T3, Y1 receptor STA, TSA (Rattus norvegicus, UniProt P21555, S352A/S362A/T353A/T361A); experiment: [125I]PYY competition binding, Y1 STA, TSA/βarr2 membranes
T3 sequence (P21555 2-382 S352A/T353A/T361A/S362A): T1 sequence (P21555 2-382 S352A/T353A) with T360A, S361A

Y1 receptor 5A = target: T4, Y1 receptor 5A (Rattus norvegicus, UniProt P21555, S352A/S359A/S362A/T353A/T361A); experiment: [125I]PYY competition binding, Y1 5A/βarr2 membranes
T4 sequence (P21555 1-382 S352A/T353A/S359A/T361A/S362A): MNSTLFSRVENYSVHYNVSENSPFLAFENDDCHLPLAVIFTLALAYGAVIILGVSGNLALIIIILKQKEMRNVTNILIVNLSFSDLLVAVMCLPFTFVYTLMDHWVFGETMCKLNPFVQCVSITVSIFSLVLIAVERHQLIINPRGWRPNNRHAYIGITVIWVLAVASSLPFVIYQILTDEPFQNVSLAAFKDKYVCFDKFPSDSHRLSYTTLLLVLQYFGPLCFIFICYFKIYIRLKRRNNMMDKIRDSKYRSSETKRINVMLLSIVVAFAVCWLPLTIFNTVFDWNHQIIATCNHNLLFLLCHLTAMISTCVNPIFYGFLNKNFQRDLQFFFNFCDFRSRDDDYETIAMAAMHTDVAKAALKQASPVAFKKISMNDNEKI

Y2 receptor H155P = target: T5, Y2 receptor H155P (Homo sapiens, UniProt P49146, H155P); type: binding
T5 sequence (P49146 1-381 H155P): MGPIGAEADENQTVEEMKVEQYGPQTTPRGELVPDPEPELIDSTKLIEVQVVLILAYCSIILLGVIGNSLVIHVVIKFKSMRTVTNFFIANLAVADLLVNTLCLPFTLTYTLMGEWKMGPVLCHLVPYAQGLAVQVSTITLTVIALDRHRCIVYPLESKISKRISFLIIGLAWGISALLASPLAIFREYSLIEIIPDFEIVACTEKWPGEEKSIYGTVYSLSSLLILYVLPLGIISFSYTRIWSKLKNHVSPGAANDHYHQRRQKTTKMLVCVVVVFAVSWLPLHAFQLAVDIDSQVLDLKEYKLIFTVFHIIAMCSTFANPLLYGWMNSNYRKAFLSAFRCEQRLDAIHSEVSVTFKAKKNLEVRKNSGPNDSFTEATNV

[2] = inhibition of [125I]PYY specific binding

Structure (SMILES): Nc1nc2c(ncn2[C@@H]2O[C@H](COP(=O)(O)OP(=O)(O)OP(O)(O)=S)[C@@H](O)[C@H]2O)c(=O)[nH]1 [GTPγS, guanosine-5′-O-(3-thio)triphosphate]
- GTPγS 1 µM inhibition (%), Y1 ΔY346 (Y1 receptor ΔY346; 1 µM GTPγS): 61.9 ± 8.8%
- GTPγS pIC50, Y1 ΔY346 (Y1 receptor ΔY346; [2]): 8.57 ± 0.04
- GTPγS 1 µM inhibition (%), Y1 STA ([1]; 1 µM GTPγS): 61.4 ± 4.0%
- GTPγS pIC50, Y1 STA [1, 2]: 9.00 ± 0.15
- GTPγS 1 µM inhibition (%), Y1 T356A (Y1 receptor T356A; 1 µM GTPγS): 48.3 ± 4.7%
- GTPγS pIC50, Y1 T356A (Y1 receptor T356A; [2]): 8.97 ± 0.17
- GTPγS 1 µM inhibition (%), Y1 STA, TSA (Y1 receptor STA, TSA; 1 µM GTPγS): 58.2 ± 5.0%
- GTPγS pIC50, Y1 STA, TSA (Y1 receptor STA, TSA; [2]): 9.03 ± 0.26
- GTPγS 1 µM inhibition (%), Y1 5A (Y1 receptor 5A; 1 µM GTPγS): 55.7 ± 3.4%
- GTPγS pIC50, Y1 5A (Y1 receptor 5A; [2]): 8.81 ± 0.28
- GTPγS 1 µM inhibition (%), Y2 H155P (Y2 receptor H155P; 1 µM GTPγS): 70.2 ± 5.3%
- GTPγS pIC50, Y2 H155P (Y2 receptor H155P; [2]): 9.17 ± 0.05
